Measured values: US20210386705A1, “APPLICATION OF CHIGLITAZAR AND RELATED COMPOUNDS THEREOF” (SHENZHEN CHIPSCREEN BIOSCIENCES CO., LTD., priority 2018, published 2021)

How the values were obtained:
[1] = test system: primary human hepatic stellate cells; experiment: PDGF-BB stimulated proliferation of hepatic stellate cells (EdU and MTT assay); format: cell-based; details: EdU 24 hours, MTT 72 hours, FIGS. 1-2
Method: Primary human hepatic stellate cells (HSC) purchased from Sciencell Research Laboratories, Inc. were seeded into 96-well plates with complete growth media (Stellate Cell Medium) for 24 hours, followed by culturing overnight in culture media free of serum and growth factors, and then the culture media were replaced by fresh media containing platelet-derived growth factor (PDGF-BB) and the compounds to be tested (chiglitazar sodium or the reference compound PPARγ/α dual agonist pioglitazone purchased from Selleck Chemicals LLC) at various concentrations, and the cells were cultured for 24 hours. When the cells were treated with the compounds for the last 17 hours, EdU (5-ethynyl-2′-deoxyuridine) was added to the cells. Finally, the culture media were removed and the cells were fixed with formaldehyde. The amount of the EdU incorporated into the DNA of the cells was quantified by fluorescent Click-it EdU assay according to the manufacturer's instructions (Beyotime). […] The inhibition of cell proliferation by the compounds was determined by comparing the EdU incorporated value of the control group (FIG. 1). […]

[2] = test system: primary human dermal fibroblasts; experiment: PDGF-BB stimulated proliferation of dermal fibroblasts (MTT assay); format: cell-based; details: MTT 72 hours, FIG. 3
Method: Primary human hepatic stellate cells or primary human dermal fibroblasts (HDF), both purchased from Sciencell, were seeded into 96-well plates with complete growth media (Stellate Cell Medium or Fibroblast Cell Medium) for 24 hours, followed by culturing overnight in the culture media free of serum and growth factors, and then the culture media were replaced by fresh medium containing platelet-derived growth factor (PDGF-BB) and the compounds to be tested at various concentrations, and the cells was cultured for another 72 hours. Measurement was performed using a conventional MTT assay kit (Promega). […] The inhibition of cell proliferation by the compounds was determined by comparing the absorbance value of the control group (FIGS. 2, 3).

[3] = test system: connective tissue growth factor (CTGF); experiment: TGF-β1-activated hepatic stellate cells, CTGF gene expression (qPCR); format: cell-based, human; details: TGF-β1 stimulation, 24 hours; FIG. 4
Method: Human primary hepatic stellate cells were seeded into 6-well plates with complete growth media (Stellate Cell Medium) for 24 hours, and then the culture media were replaced by fresh media (free of serum and growth factors) containing TGF-β1 and the compound to be tested (sodium chiglitazar) or the reference compound PPARγ/α dual agonist pioglitazone or PPARα/δ dual agonist GFT505 (both purchased from Selleck), and the cells were cultured for 24 hours. The total RNAs of the samples were extracted, and reverse transcription reaction was performed. Thereafter, a conventional PCR amplification kit (FastStart Universal SYBR@ Green Master (ROX), Roche) was used for further detection, where the PCR primers were designed with reference to the NCBI standard mRNA sequence of the target genes (Table 2). PCR reaction and detection were carried out on the ABI StepOnePlus real-time quantitative PCR instrument.
By calculating the relative amount of transcripts was calculate by “Delta-Delta CT method” (Livak et al. Methods 2001), and using ACTB as the housekeeping gene for normalization and the average data of untreated human hepatic stellate cells as a reference control, the relative change folds of gene expression were obtained (FIG. 4).

[4] = test system: THP-1 cells; experiment: Inflammatory factor gene expression (MCP-1, TNFα) in PMA-activated THP-1 cells (qPCR); format: cell-based, human; details: 6 hours, FIG. 5
Method: Human acute monocytic leukemia mononuclear cell line (THP-1) cells were activated by a certain concentration of phorbol esters (Phorbol-12-myristate-13-acetate, PMA) and differentiated into macrophages. Through this cell model, the activating effects of sodium chiglitazar and other compounds on the expression of THP-1 related inflammatory factors were detected.
THP-1 cells were seeded into 6-well plates with complete growth media for 24 hours, and then the culture media were replaced by fresh media containing PMA and the compound to be tested (sodium chiglitazar) or the reference compound GFT505 (PPARα/δ dual agonist), and the cells were cultured for 6 hours. The total RNAs of the samples were extracted, and cDNA templates were synthesized by reverse transcription reaction (Transcriptor First Strand cDNA Synthesis Kit, Roche). Thereafter, a conventional PCR amplification kit (FastStart Universal SYBR@ Green Master (ROX), Roche) was used for semi-quantitative gene expression detection on the ABI StepOnePlus real-time quantitative PCR instrument.
The relative expression change of the target genes was obtained by using the internal reference β-actin gene (ACTB) as the standard for normalization, compared with the untreated cell samples, and the relative expression change folds were calculated (FIG. 5).

[5] = test system: CCl4-induced liver fibrosis; experiment: Mouse model of carbon tetrachloride induced liver fibrosis; format: in vivo, BALB/c mice; details: 40, 20 and 10 mg/kg intragastrically, from the fourth week to the 7th week
Method: BALB/c mice were injected intraperitoneally with 25% CCl4 (4 mL/kg body weight) twice a week, which can cause liver damage and chronic liver fibrosis in 3 weeks. The model animals were administered for 6 weeks continuously, and the non-model control group was administered the solvent control olive oil for the same period. Model animals were randomly divided into groups from the third week. The control group was administered solvent (0.2% sodium methylcellulose) intragastrically from the fourth week, and the sodium chiglitazar at high, medium and low dose groups were administered 40, 20, and 10 mg/kg body weight of the active ingredient sodium chiglitazar intragastrically, respectively (Table 4), until the end of the experiment in the 7th week. […]
The liver tissue sections were stained with Picrosirius Red for morphological observation (FIG. 9), and measured by using a semi-automatic digital image analysis system and the measurement software (OsteoMetrics, Inc.). The pathologist single-blindly tested and hand-drew the entire sections, and then measured the fibrosis area on the entire sections in straight lines. The software automatically calculated the total area of the measurement. […]

`O=C(c1ccc(F)cc1)c1ccccc1N[C@@H](Cc1ccc(OCCn2c3ccccc3c3ccccc32)cc1)C(=O)[O-].[Na+]` [sodium chiglitazar] was tested, and the “Inhibition of in vitro proliferation of liver-derived fibroblasts” value [1] was “had inhibitory activity”, the “Inhibition of in vitro proliferation of skin-derived fibroblasts” value [2] was “had inhibitory activity” and the “Effect on expression of connective tissue growth factor” value [3] was “significant and dose-dependent inhibitory effect”. For the same molecule, the “Inhibition of phorbol esters-mediated activation of monocyte and related gene expression” value [4] was “significantly inhibit”, the “Inflammatory activity of liver tissues (Metavir score, H&E staining)” value ([5]; FIGS. 7-8) was “partially inhibit” and the “Fibrosis degree of liver tissues (fibrosis area %, Picrosirius Red)” value ([5]; FIGS. 9-10) was “partially inhibit”.
